Data taken from patent US20220235049A1, “SUBSTITUTED PYRROLO [2, 3-b] PYRIDINE AND PYRAZOLO [3,4-b] PYRIDINE DERIVATIVES AS PROTEIN KINASE INHIBITORS” (Fochon Pharmaceuticals, Ltd., priority 2019, published 2022).
pIC50: −log10 of the molar value.

Test system: DOHH2 cells
Assay: Cell proliferation assay in DOHH2 cells (MTS)
Format: cell-based
Conditions: Homo sapiens, DOHH-2, 120 h
Protocol: To investigate whether a compound is able to inhibit the activity of BTK in cells, a mechanism-based assay using DOHH2 (DSMZ catalog #: ACC47) cell was developed. In this assay, inhibition of BTK was detected by the inhibition of DOHH2 cells proliferation. Cells were collected and plated onto 96-well plates at the optimized cell density (5000 cells/well). Plates were incubated at 37° C., with 5% CO2 for 4 h. Compounds were serially diluted and added to the plates with the final concentrations as 10000, 3333.3, 1111.1, 370.4, 123.5, 41.2, 13.7, 4.6 and 1.5 nM. Plates were incubated at 37° C., with 5% CO2 for 120 h. An aliquot of 20 μL MTS/100 μL medium mixture solution were added to each well and the plates were incubated for exactly 2 h. The reaction was stopped by adding 25 μL 10% SDS to each well. The absorbance was measured by a microplate reader at 490 nm and 650 nm (reference wavelength). IC50 was calculated using GraphPad Prism 5.0.
Select compounds prepared as described above were assayed according to the biological procedures described herein.

## O=C(c1ccc(Oc2ccccc2)cc1F)c1c[nH]c2ncc(F)c(N[C@@H]3CC[C@@H](CO)OC3)c12 [Example 58, (5-fluoro-4-(((3R,6S)-6-(hydroxymethyl)tetrahydro-2H-pyran-3-yl)amino)-1H-pyrrolo[2,3-b]pyridin-3-yl)(2-fluoro-4-phenoxyphenyl)methanone]
  pIC50: 7.64

## CCOc1cnc2[nH]cc(C(=O)c3ccc(Oc4ccccc4F)cc3C)c2c1N[C@@H]1CC[C@@H](CO)OC1 [Example 64, (5-ethoxy-4-(((3R,6S)-6-(hydroxymethyl)tetrahydro-2H-pyran-3-yl)amino)-1H-pyrrolo[2,3-b]pyridin-3-yl)(4-(2-fluorophenoxy)-2-methylphenyl)methanone]
  pIC50: 9.00

## CCOc1cnc2[nH]cc(C(=O)c3ccc(Oc4ccccc4F)cc3Cl)c2c1N[C@@H]1CC[C@@H](CO)OC1 [Example 65, (2-chloro-4-(2-fluorophenoxy)phenyl)(5-ethoxy-4-(((3R,6S)-6-(hydroxymethyl)tetrahydro-2H-pyran-3-yl)amino)-1H-pyrrolo[2,3-b]pyridin-3-yl)methanone]
  pIC50: 9.00

## COc1cnc2[nH]cc(C(=O)c3ccc(Oc4ccccc4F)cc3)c2c1N[C@@H]1CC[C@@H](CO)OC1 [Example 73, (4-(2-fluorophenoxy)phenyl)(4-(((3R,6S)-6-(hydroxymethyl)tetrahydro-2H-pyran-3-yl)amino)-5-methoxy-1H-pyrrolo[2,3-b]pyridin-3-yl)methanone]
  pIC50: 9.00

## COc1cnc2[nH]cc(C(=O)c3cnc(Oc4ccccc4F)cc3C)c2c1N[C@@H]1CC[C@@H](CO)OC1 [Example 76, (6-(2-fluorophenoxy)-4-methylpyridin-3-yl)(4-(((3R,6S)-6-(hydroxymethyl)tetrahydro-2H-pyran-3-yl)amino)-5-methoxy-1H-pyrrolo[2,3-b]pyridin-3-yl)methanone]
  pIC50: 7.33

## COc1cnc2[nH]cc(C(=O)c3ccc(Oc4ccccc4F)cc3Cl)c2c1N[C@@H]1CC[C@@H](CO)OC1 [Example 77, (2-chloro-4-(2-fluorophenoxy)phenyl)(4-(((3R,6S)-6-(hydroxymethyl)tetrahydro-2H-pyran-3-yl)amino)-5-methoxy-1H-pyrrolo[2,3-b]pyridin-3-yl)methanone]
  pIC50: 9.00

## COc1cnc2[nH]cc(C(=O)c3ccc(Oc4ccccc4F)cc3C)c2c1N[C@@H]1CC[C@@H](CO)OC1 [Example 78, (4-(2-fluorophenoxy)-2-methylphenyl)(4-(((3R,6S)-6-(hydroxymethyl)tetrahydro-2H-pyran-3-yl)amino)-5-methoxy-1H-pyrrolo[2,3-b]pyridin-3-yl)methanone]
  pIC50: 9.00

## COc1cc(Oc2ccccc2F)ccc1C(=O)c1c[nH]c2ncc(OC)c(N[C@@H]3CC[C@@H](CO)OC3)c12 [Example 81, (4-(2-fluorophenoxy)-2-methoxyphenyl)(4-(((3R,6S)-6-(hydroxymethyl)tetrahydro-2H-pyran-3-yl)amino)-5-methoxy-1H-pyrrolo[2,3-b]pyridin-3-yl)methanone]
  pIC50: 7.72

## Cc1cc(Oc2ccccc2F)ccc1C(=O)c1c[nH]c2ncc(Cl)c(N[C@@H]3CC[C@@H](CO)OC3)c12 [Example 87, (5-chloro-4-(((3R,6S)-6-(hydroxymethyl)tetrahydro-2H-pyran-3-yl)amino)-1H-pyrrolo[2,3-b]pyridin-3-yl)(4-(2-fluorophenoxy)-2-methylphenyl)methanone]
  pIC50: 7.77

## N#Cc1cnc2[nH]cc(C(=O)c3ccc(Oc4ccccc4F)cc3)c2c1N[C@@H]1CC[C@@H](CO)OC1 [Example 88, 3-(4-(2-fluorophenoxy)benzoyl)-4-(((3R,6S)-6-(hydroxymethyl)tetrahydro-2H-pyran-3-yl)amino)-1H-pyrrolo[2,3-b]pyridine-5-carbonitrile]
  pIC50: 7.00

## N#Cc1cnc2[nH]cc(C(=O)c3ccc(Oc4ccccc4F)cc3F)c2c1N[C@@H]1CC[C@@H](CO)OC1 [Example 90, 3-(2-fluoro-4-(2-fluorophenoxy)benzoyl)-4-(((3R,6S)-6-(hydroxymethyl)tetrahydro-2H-pyran-3-yl)amino)-1H-pyrrolo[2,3-b]pyridine-5-carbonitrile]
  pIC50: 7.30

## O=C(c1ccc(Oc2ccccc2F)cc1)c1c[nH]c2ncc(Cl)c(N[C@@H]3CC[C@@H](CO)OC3)c12 [Example 98, (5-chloro-4-(((3R,6S)-6-(hydroxymethyl)tetrahydro-2H-pyran-3-yl)amino)-1H-pyrrolo[2,3-b]pyridin-3-yl)(4-(2-fluorophenoxy)phenyl)methanone]
  pIC50: 7.39

## O=C(c1ccc(Oc2ccccc2F)cc1F)c1c[nH]c2ncc(Cl)c(N[C@@H]3CC[C@@H](CO)OC3)c12 [Example 99, (5-chloro-4-(((3R,6S)-6-(hydroxymethyl)tetrahydro-2H-pyran-3-yl)amino)-1H-pyrrolo[2,3-b]pyridin-3-yl)(2-fluoro-4-(2-fluorophenoxy)phenyl)methanone]
  pIC50: 7.62

## O=C(c1ccc(Oc2ccccc2F)cc1Cl)c1c[nH]c2ncc(Cl)c(N[C@@H]3CC[C@@H](CO)OC3)c12 [Example 100, (5-chloro-4-(((3R,6S)-6-(hydroxymethyl)tetrahydro-2H-pyran-3-yl)amino)-1H-pyrrolo[2,3-b]pyridin-3-yl)(2-chloro-4-(2-fluorophenoxy)phenyl)methanone]
  pIC50: 7.17

## O=C(c1ccc(Oc2ccccc2F)cc1F)c1c[nH]c2nccc(N[C@@H]3CC[C@@H](CO)OC3)c12 [Example 102, (2-fluoro-4-(2-fluorophenoxy)phenyl)(4-(((3R,6S)-6-(hydroxymethyl)tetrahydro-2H-pyran-3-yl)amino)-1H-pyrrolo[2,3-b]pyridin-3-yl)methanone]
  pIC50: 8.15

## Cc1cc(Oc2ccccc2F)ncc1C(=O)c1c[nH]c2nccc(N[C@@H]3CC[C@@H](CO)OC3)c12 [Example 103, (6-(2-fluorophenoxy)-4-methylpyridin-3-yl)(4-(((3R,6S)-6-(hydroxymethyl)tetrahydro-2H-pyran-3-yl)amino)-1H-pyrrolo[2,3-b]pyridin-3-yl)methanone]
  pIC50: 7.41

## O=C(c1ccc(Oc2ccccc2F)cc1)c1c[nH]c2nccc(N[C@@H]3CC[C@@H](CO)OC3)c12 [Example 104, (4-(2-fluorophenoxy)phenyl)(4-(((3R,6S)-6-(hydroxymethyl)tetrahydro-2H-pyran-3-yl)amino)-1H-pyrrolo[2,3-b]pyridin-3-yl)methanone]
  pIC50: 7.64

## COc1cc(Oc2ccccc2F)cnc1C(=O)c1c[nH]c2nccc(N[C@@H]3CC[C@@H](CO)OC3)c12 [Example 110, (5-(2-fluorophenoxy)-3-methoxypyridin-2-yl)(4-(((3R,6S)-6-(hydroxymethyl)tetrahydro-2H-pyran-3-yl)amino)-1H-pyrrolo[2,3-b]pyridin-3-yl)methanone]
  pIC50: 7.02

## O=C(c1ccc(Oc2ccccc2F)cc1)c1c[nH]c2ncc(F)c(N[C@@H]3CC[C@@H](CO)OC3)c12 [Example 114, (5-fluoro-4-(((3R,6S)-6-(hydroxymethyl)tetrahydro-2H-pyran-3-yl)amino)-1H-pyrrolo[2,3-b]pyridin-3-yl)(4-(2-fluorophenoxy)phenyl)methanone]
  pIC50: 7.92

## O=C(c1ccc(Oc2ccccc2F)cc1F)c1c[nH]c2ncc(F)c(N[C@@H]3CC[C@@H](CO)OC3)c12 [Example 115, (5-fluoro-4-(((3R,6S)-6-(hydroxymethyl)tetrahydro-2H-pyran-3-yl)amino)-1H-pyrrolo[2,3-b]pyridin-3-yl)(2-fluoro-4-(2-fluorophenoxy)phenyl)methanone]
  pIC50: 8.30
